Laboratory results published in ChEMBL document CHEMBL3638714, “Fused heterocyclic derivative and pharmaceutical use thereof” (2015).

molecular target: Xanthine dehydrogenase/oxidase (Bos taurus, UniProt P80457); assay: Inhibition Assay: Xanthine oxidase (from bovine milk, Sigma) was prepared with phosphate-buffered saline (PBS) at 0.02 units/mL, and then the solution was added to 96 well plates at 50 μL/well. In addition, test compounds diluted with PBS were added at 50 μL/well. Xanthine (manufactured by Wako pure chemical) at 200 μM prepared with PBS was added at 100 μL/well, and the reaction was conducted for 10 minutes at room temperature. Absorbance at 290 nm was measured by using a microplate reader SpectraMax Plus 384 (manufactured by Molecular device).
Sequence (P80457 whole entry): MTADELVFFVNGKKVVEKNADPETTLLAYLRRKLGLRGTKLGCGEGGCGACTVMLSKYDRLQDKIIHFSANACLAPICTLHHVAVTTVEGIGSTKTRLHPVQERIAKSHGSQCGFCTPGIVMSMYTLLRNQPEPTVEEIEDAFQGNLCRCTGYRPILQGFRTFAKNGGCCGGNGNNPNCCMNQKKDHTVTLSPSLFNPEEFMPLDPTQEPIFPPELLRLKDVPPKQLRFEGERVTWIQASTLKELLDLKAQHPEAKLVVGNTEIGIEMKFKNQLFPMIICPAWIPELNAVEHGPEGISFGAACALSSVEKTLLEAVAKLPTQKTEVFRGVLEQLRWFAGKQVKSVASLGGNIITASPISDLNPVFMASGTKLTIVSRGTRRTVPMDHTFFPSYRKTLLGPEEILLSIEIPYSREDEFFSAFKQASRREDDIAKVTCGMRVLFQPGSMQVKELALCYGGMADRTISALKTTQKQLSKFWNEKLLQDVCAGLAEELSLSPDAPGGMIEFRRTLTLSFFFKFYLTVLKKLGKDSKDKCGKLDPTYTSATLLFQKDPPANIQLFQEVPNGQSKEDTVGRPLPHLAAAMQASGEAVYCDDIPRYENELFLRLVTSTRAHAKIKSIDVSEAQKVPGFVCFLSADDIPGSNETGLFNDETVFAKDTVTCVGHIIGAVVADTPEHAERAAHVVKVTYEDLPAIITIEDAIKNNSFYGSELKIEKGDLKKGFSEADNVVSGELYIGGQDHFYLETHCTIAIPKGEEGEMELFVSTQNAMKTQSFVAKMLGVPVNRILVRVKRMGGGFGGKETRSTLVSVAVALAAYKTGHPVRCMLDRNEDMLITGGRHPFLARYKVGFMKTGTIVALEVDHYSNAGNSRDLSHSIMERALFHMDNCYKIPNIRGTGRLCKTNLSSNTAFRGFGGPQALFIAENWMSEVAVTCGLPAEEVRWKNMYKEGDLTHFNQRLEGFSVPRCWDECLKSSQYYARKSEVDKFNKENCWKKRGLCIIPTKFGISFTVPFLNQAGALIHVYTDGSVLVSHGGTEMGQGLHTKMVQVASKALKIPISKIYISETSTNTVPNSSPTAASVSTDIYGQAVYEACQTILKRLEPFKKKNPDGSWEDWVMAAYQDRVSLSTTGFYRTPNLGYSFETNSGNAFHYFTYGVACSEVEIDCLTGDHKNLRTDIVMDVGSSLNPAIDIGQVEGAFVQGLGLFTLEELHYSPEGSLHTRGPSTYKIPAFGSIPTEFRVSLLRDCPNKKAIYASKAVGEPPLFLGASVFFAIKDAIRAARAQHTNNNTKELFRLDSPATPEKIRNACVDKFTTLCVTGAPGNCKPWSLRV

Point of comparison: `[C-]#[N+]c1cn(-c2ccc(C(=O)O)c(O)c2)c2cscc12`, IC50 10 nM. Against it:
- [C-]#[N+]c1cn(-c2ccc(C(=O)O)c(O)c2)c2sc(Br)cc12 — within 1.5-fold, 14 nM
- [C-]#[N+]c1cn(-c2ccc(C(=O)O)c(O)c2)c2sccc12 — within 1.5-fold, 13 nM
